Experimental findings from US20090011937A1, “Use of Fungicides for Increasing the Quality and Optionally the Quantity of Oil-Plant Products” (priority 2006, published 2009) are described below.

Assay type in all cases: in vivo
Experiment [1] deals with Oilseed rape. The experiment can be described thus: Phosphorus content of oil, oilseed rape treated with metconazole, pressing with normal pressure (DIN EN 14107). Particulars: oil of rapeseed, Germany 2004/2005; spray autumn and spring, in each case 60 g active ingredient per ha; pressed under normal pressure; untreated 1.9. As to the method:
(§1) Oilseed rape was grown in 2004/2005 in Germany under the usual conditions. In autumn 2004 (growth stage BBCH 14-16) and in spring 2005 (growth stage BBCH 31-51), some of the oilseed rape was treated by spraying with metconazole (employed in the form of the commercially available product Caramba®; application rate: in each case 60 g active ingredient per ha). For comparison purposes, the remainder of the oilseed rape remained untreated. The plants were harvested in summer 2005 (growth stage BBCH 92). The rapeseed was pressed with a press from Ökotec under normal pressure (nozzle 8, 40 rpm, temperature at the pressing head 60° C.), and the phosphorus content and the alkaline-earth metal content (Ca, Mg) of the resulting oil were determined in accordance with DIN EN 14107 and DIN EN 14538, respectively.

The test system of experiment [2] is Oilseed rape cv. "Trabant". In words: Alkaline-earth metal content of oil, oilseed rape treated with metconazole, pressing with normal pressure and high pressure (DIN EN 14538). As to the method: Oilseed rape cv. “Trabant” was grown under the usual conditions in 2005/2006 in Germany at the Bothkamp site. In autumn 2005 (growth stage BBCH 16-18) and in spring 2006 (BBCH 31-51), some of the oilseed rape plants were treated by spraying with metconazole (employed in the form of the commercially available product Caramba®; application rate: in each case 60 g active ingredient per ha). For comparison reasons, the remainder of the rapeseed plants remained untreated. The plants were harvested in summer 2006 (growth stage BBCH 92). The rapeseed was pressed with a press from Ökotec and the alkaline-earth metal content (Ca, Mg) of the resulting oil was determined as specified in DIN EN 14538. Here, part of the rapeseed was pressed under normal pressure (nozzle 8, 40 rpm, temperature at the pressing head 60° C.) and another portion under high pressure (nozzle 6, 70 rpm, temperature at the pressing head >70° C.).

Experiment [3] concerns Oilseed rape. The experiment can be described thus: Alkaline-earth metal content (Ca, Mg) of oil, oilseed rape treated with metconazole, pressing with normal pressure (DIN EN 14538). Particulars: oil of rapeseed, Germany 2004/2005; spray autumn and spring, in each case 60 g active ingredient per ha; pressed under normal pressure; untreated 5.7. As to the method:
as §1

Experiment [4] has as its system Oilseed rape cv. "Trabant". The experiment can be described thus: Phosphorus content of oil, oilseed rape treated with metconazole or metconazole in combination with boscalid, pressing at high pressure (DIN EN 14107). Conditions: oil of rapeseed cv. Trabant, Bothkamp 2005/2006; metconazole 60 g/ha autumn and spring, boscalid 250 g/ha at anthesis; pressed under high pressure; untreated 5.0. As to the method: Oilseed rape cv. “Trabant” was grown under the usual conditions in 2005/2006 in Germany at the Bothkamp site. In autumn 2005 (growth stage BBCH 16-18) and in spring 2006 (BBCH 31-51), some of the oilseed rape plants were treated by spraying with metconazole (employed in the form of the commercially available product Caramba®; application rate: in each case 60 g active ingredient per ha). Some other oilseed rape plants were furthermore additionally treated during anthesis (BBCH 65) by spraying with boscalid (employed in the form of the commercially available product Cantus®; application rate: 250 g active substance per ha). For comparison reasons, some of the rapeseed plants remained untreated. The plants were harvested in summer 2006 (growth stage BBCH 92). The rapeseed was pressed with a press from Ökotec under high pressure (nozzle 6, 70 rpm, temperature at the pressing head >70° C.), and the phosphorus content of the resulting oil was determined in accordance with DIN EN 14107.

The test system of experiment [5] is Oilseed rape cv. "Talent". The experiment can be described thus: Iodine number of oil, oilseed rape treated with boscalid (EN 14111). Conditions: oil of rapeseed cv. Talent, Tachenhausen 2005/2006; boscalid 250 g/ha during anthesis; normal pressure; untreated 108. As to the method:
Oilseed rape cv. “Talent” was grown in 2005/2006 under the usual conditions at the Tachenhausen site in Germany. During anthesis (growth stage BBCH 61-65), the oilseed rape plants were treated by spraying with boscalid (employed in the form of the commercially available product Cantus®; application rate: 250 g active substance per ha). For comparison reasons, some of the oilseed rape plants remained untreated. The plants were harvested in summer 2006 (BBCH 92). The rapeseed was pressed with a press from Ökotec under normal pressure (nozzle 8, 40 rpm, temperature at the pressing head 60° C.), and the iodine number of the oil obtained was determined as specified in EN 14111.

The test system of experiment [6] is Oilseed rape cv. "Talent". The experiment can be described thus: Resistance to oxidation of oil, oilseed rape treated with boscalid or boscalid in combination with dimoxystrobin (DIN EN 14112). Conditions: oil of rapeseed cv. Talent, Tachenhausen 2005/2006; spray during anthesis; normal pressure; untreated 9.5. Here is the method:
Oilseed rape cv. “Talent” was grown in 2005/2006 under the usual conditions at the Tachenhausen site in Germany. During anthesis (growth stage BBCH 61-65), the oilseed rape plants were treated by spraying either with boscalid (employed in the form of the commercially available product Cantus®; application rate: 250 g active substance per ha) or with boscalid in combination with dimoxystrobin (employed in the form of the commercially available product Pictor®; application rate: in each case 100 g active ingredient per ha). For comparison reasons, some of the oilseed rape plants remained untreated. The plants were harvested in summer 2006 (BBCH 92). The rapeseed was pressed with a press from Ökotec under normal pressure (nozzle 8, 40 rpm, temperature at the pressing head 60° C.), and the resistance to oxidation of the oil obtained was determined as specified in DIN EN 14112.

Experiment [7] relates to Oilseed rape cv. "Lioness". In words: Acid content of oil, oilseed rape treated with boscalid or boscalid in combination with dimoxystrobin (DIN EN 14104). Conditions: oil of rapeseed cv. Lioness, Britain 2005/2006; spray during anthesis; normal pressure; untreated 0.41. Here is the method:
Oilseed rape cv. “Lioness” was grown in 2005/2006 in Britain under the normal conditions. During anthesis (growth stage BBCH 61-65), the rapeseed plants were treated by spraying either with boscalid (employed in the form of the commercially available product Cantus®; application rate: 250 g active substance per ha) or with boscalid in combination with dimoxystrobin (employed in the form of the commercially available product Pictor®; application rate: in each case 100 g active substance per ha). For comparison reasons, some of the rapeseed plants remained untreated. The plants were harvested in summer 2006 (BBCH 92). The rapeseed was pressed with a press from Ökotec under normal pressure (nozzle 8, 40 rpm, temperature at the pressing head 60° C.), and the acid content of the oil obtained was determined as specified in DIN EN 14104.

Experiment [8] has as its system Oilseed rape cv. "Lioness". The experiment can be described thus: Sulfur content of oil from treated oilseed rape (EN ISO 20884). Particulars: oil of rapeseed cv. Lioness, Britain 2005/2006; spray during anthesis; normal pressure; untreated 4. As to the method:
Oilseed rape cv. “Lioness” was grown in 2005/2006 in Britain under the normal conditions. During anthesis (growth stage BBCH 61-65), the rapeseed plants were treated by spraying either with boscalid (employed in the form of the commercially available product Cantus®; application rate: 250 g active substance per ha), with boscalid in combination with dimoxystrobin (employed in the form of the commercially available product Pictor®; application rate: in each case 100 g active substance per ha), with prothioconazole (employed in the form of the commercially available product Proline®; application rate: 175 g active substance per ha) or with azoxystrobin (employed in the form of the commercially available product Amistar®; application rate: 200 g active substance per ha). For comparison reasons, some of the rapeseed plants remained untreated. The plants were harvested in summer 2006 (BBCH 92). The rapeseed was pressed with a press from Ökotec under normal pressure (nozzle 8, 40 rpm, temperature at the pressing head 60° C.), and the sulfur content of the oil obtained was determined as specified in EN ISO 20884.

Experiment [9] relates to Oilseed rape cv. "Lioness". In words: Overall contamination of oil from treated oilseed rape (DIN EN 12662). Conditions: oil of rapeseed cv. Lioness, Britain 2005/2006; spray during anthesis (BBCH 61-65); normal pressure; untreated 33. As to the method:
Oilseed rape cv. “Lioness” was grown in 2005/2006 in Britain under the normal conditions. During anthesis (growth stage BBCH 61-65), the rapeseed plants were treated by spraying either with boscalid (employed in the form of the commercially available product Cantus®; application rate: 250 g active substance per ha), with boscalid in combination with dimoxystrobin (employed in the form of the commercially available product Pictor®; application rate: in each case 100 g active substance per ha), with prothioconazole (employed in the form of the commercially available product Proline®; application rate: 175 g active substance per ha) or with azoxystrobin (employed in the form of the commercially available product Amistar®; application rate: 200 g active substance per ha). For comparison reasons, some of the rapeseed plants remained untreated. The plants were harvested in summer 2006 (BBCH 92). The rapeseed was pressed with a press from Ökotec under normal pressure (nozzle 8, 40 rpm, temperature at the pressing head 60° C.), and the overall contamination of the oil obtained was determined as specified in DIN EN 12662.

Consider `CC1(C)CCC(Cc2ccc(Cl)cc2)C1(O)Cn1cncn1` (stereo not drawn) [2 × metconazole, metconazole], for which the Phosphorus content is reported as less than 1 mg/kg in the experiment on Oilseed rape [1] and 4.0 mg/kg in experiment [4]. Further, the “Brittleness of the seed coat” value in experiment [2] (inferred from the more pronounced reduction of alkaline-earth metal content in high-pressure oil versus normal-pressure oil) is “appears to reduce the brittleness of the seed coat”. Besides, the “Alkaline-earth metal content (Ca + Mg) - high pressure” value in [2] (oil of rapeseed cv. Trabant, Bothkamp 2005/2006, metconazole 60 g/ha autumn and spring, high pressure (nozzle 6, 70 rpm, >70° C.), untreated 9) is 5 mg/kg. Further, the “Alkaline-earth metal content (Ca + Mg) - normal pressure” value in [2] (oil of rapeseed cv. Trabant, Bothkamp 2005/2006, metconazole 60 g/ha autumn and spring, normal pressure (nozzle 8, 40 rpm, 60° C.), untreated 6) was determined as 4 mg/kg. In the experiment with Oilseed rape [3], the “Alkaline-earth metal content (Ca + Mg)” value came out at 3.9 mg/kg.
With `O=C(Nc1ccccc1-c1ccc(Cl)cc1)c1cccnc1Cl` [Boscalid, boscalid], the Iodine number in experiment [5] was found to be 105 g iodine per 100 g. Moreover, the “Resistance to oxidation at 110° C.” value in [6] came out at 9.7 h. The Acid number in experiment [7] is 0.32 mg KOH/g. Also, in [8], the Sulfur content worked out at 2 mg/kg. In experiment [9], the Overall contamination was 20 mg/kg.
On to `OC(Cc1ccccc1Cl)(Cn1nc[nH]c1=S)C1(Cl)CC1` (stereo not drawn) [Prothioconazole, prothioconazole], for which, in experiment [8], the Sulfur content stood at 2 mg/kg. The Overall contamination in [9] is listed as 22 mg/kg.
The like results for `CO/C=C(/C(=O)OC)c1ccccc1Oc1cc(Oc2ccccc2C#N)ncn1` [Azoxystrobin, azoxystrobin] were, in that order, 2 mg/kg and 24 mg/kg.
